# Laboratory results published in patent US10450275B2, “Compounds and methods for treating cancer, neurological disorders, ethanol withdrawal, anxiety, depression, and neuropathic pain” (Board of Regents, The University of Texas System, priority 2013, dated 2019).
# “And” between values parts separate entries of the source, which are not always exact repeats. Equal entries are not always repeated. Where two headings read alike, the source gives them in different places.
# Legend:
# [1] = molecular target: T1, human M1 muscarinic receptor (Homo sapiens, UniProt P11229); test: human M1 muscarinic receptor antagonist activity; type: cell-based; details: 3 μM
# T1 sequence (P11229 1-460): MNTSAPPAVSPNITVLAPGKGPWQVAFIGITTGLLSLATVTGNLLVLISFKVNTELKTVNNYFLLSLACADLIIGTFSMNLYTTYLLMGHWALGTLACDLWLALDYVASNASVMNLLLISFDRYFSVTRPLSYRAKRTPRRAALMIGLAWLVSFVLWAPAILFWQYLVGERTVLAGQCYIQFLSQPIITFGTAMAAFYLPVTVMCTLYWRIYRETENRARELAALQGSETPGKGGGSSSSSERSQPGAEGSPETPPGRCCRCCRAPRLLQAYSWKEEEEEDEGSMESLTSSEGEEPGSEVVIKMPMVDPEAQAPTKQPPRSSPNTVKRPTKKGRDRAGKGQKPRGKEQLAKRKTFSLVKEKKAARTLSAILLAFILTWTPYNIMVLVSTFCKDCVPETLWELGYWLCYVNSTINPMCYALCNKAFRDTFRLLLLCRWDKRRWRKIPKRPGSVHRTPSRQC
# [2] = system: Y. pestis topoisomerase I; type: biochemical; details: 10 μM
# [3] = molecular target: T2, striatal-enriched protein tyrosine phosphatase (STEP) (Homo sapiens, UniProt P54829); test: striatal-enriched protein tyrosine phosphatase (STEP) inhibition; type: biochemical; details: read-out: Potency, striatal-enriched protein tyrosine phosphatase (STEP) inhibitor
# T2 sequence (P54829 1-565): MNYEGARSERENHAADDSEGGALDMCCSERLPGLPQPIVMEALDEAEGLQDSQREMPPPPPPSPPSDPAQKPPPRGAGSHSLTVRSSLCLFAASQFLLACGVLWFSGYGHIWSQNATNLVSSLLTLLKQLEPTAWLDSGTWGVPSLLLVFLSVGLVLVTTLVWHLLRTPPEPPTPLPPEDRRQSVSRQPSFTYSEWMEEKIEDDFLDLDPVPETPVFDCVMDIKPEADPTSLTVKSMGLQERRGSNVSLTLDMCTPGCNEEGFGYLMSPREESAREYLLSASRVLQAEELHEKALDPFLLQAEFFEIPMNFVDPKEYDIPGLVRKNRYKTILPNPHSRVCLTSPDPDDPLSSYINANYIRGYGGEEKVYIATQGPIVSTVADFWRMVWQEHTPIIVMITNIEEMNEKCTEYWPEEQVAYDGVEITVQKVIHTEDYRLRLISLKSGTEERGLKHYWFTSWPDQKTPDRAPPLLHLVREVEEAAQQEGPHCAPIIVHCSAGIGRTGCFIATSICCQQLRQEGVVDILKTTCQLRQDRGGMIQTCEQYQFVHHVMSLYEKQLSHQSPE
# [4] = molecular target: T3, microphthalmia-associated transcription factor (MITF) (Homo sapiens, UniProt O75030); test: microphthalmia-associated transcription factor (MITF) activation; type: cell-based; details: read-out: Potency (AC40), microphthalmia-associated transcription factor (MITF) activator
# T3 sequence (O75030 1-526): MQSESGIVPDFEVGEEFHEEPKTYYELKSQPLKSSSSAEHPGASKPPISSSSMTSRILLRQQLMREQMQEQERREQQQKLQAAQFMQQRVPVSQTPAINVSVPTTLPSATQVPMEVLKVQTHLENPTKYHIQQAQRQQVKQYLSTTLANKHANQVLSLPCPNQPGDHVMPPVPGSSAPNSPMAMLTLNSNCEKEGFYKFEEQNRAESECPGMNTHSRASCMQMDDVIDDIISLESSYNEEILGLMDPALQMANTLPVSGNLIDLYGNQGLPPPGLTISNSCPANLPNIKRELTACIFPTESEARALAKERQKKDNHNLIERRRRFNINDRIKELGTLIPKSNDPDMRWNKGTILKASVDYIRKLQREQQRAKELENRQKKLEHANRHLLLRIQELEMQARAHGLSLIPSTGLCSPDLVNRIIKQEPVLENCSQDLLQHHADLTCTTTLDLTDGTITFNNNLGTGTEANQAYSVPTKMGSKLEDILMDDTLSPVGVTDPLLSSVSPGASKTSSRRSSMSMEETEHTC
# [5] = molecular target: mycobacterium tuberculosis bioA enzyme (Mycobacterium tuberculosis, UniProt P9WQ81); test: mycobacterium tuberculosis bioA enzyme inhibition; type: biochemical; details: read-out: Potency, mycobacterium tuberculosis bioA enzyme inhibitor
# mycobacterium tuberculosis bioA enzyme, sequence (P9WQ81 whole entry): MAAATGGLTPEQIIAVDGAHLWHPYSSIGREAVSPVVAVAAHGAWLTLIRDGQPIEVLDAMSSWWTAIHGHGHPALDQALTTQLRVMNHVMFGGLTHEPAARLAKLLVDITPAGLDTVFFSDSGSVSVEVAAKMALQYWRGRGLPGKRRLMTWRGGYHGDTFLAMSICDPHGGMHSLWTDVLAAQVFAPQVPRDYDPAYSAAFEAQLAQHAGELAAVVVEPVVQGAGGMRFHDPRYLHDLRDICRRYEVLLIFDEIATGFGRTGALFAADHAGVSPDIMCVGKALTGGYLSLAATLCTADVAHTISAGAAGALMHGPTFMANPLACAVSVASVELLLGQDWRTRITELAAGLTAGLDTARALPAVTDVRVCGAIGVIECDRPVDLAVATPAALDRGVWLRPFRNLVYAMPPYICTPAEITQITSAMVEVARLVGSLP
# [6] = Blood brain barrier permeability / brain concentration and brain clearance of JJS-1-166 in mice; type: in vivo, C57Bl/6j mice; details: time point 24 h, individual animals
# [7] = as above; type: in vivo, C57Bl/6j mice; details: for brain exposure / concentration at 3 h: mouse; for concentration at 3 h: male, C57Bl/6j, brain, 10 mg/kg
# Experimental: (§1) FIG. 1. Nine C57Bl/6j male mice (2-3 months old). Prior to PK evaluation, 3 animals were dosed with vehicle and were used to identify the standard curve using liquid chromatography-mass spectrometry (LC-MS) and as controls. Animals were randomized into 3 groups (n=3 per group). One group dosed Intravenously (IV), one group orally (PO), and one group subcutaneously (SC) with 10 mg/kg of the compound. From each animal blood will be collected 5 times: baseline (before the single dose); 5 minute; 30 minute; 1 hour; 3 hour after the single dose of the compound. (The first 4 collections are retro-orbital and the last one is terminal together with collection of the brain. Brain and blood will be flash frozen in liquid nitrogen and kept in −80° C. for later analysis. The concentration of compounds in the blood samples and brain tissues will be measured using LC-MS method.) FIG. 6. 3 day brain clearance study. A C57Bl/6j mouse was treated with 10 mg/kg JJS-1-166. After 3 days, the level of JJS-1-166 in the brain was assessed to ensure that all or a majority of the drug had been cleared. We determined the blood brain barrier (BBB) permeability and pharmacokinetic (PK) profile of JJS-1-166 (phase I), and subsequently investigated the efficacy of JJS-1-166 in an Alzheimer's disease (AD) mouse model. LC-MS/MS Method Development for Compound JJS-1-166 [table] [table]
# [8] = Pharmacokinetic profile of JJS-1-166 in mice (plasma, LC-MS); type: in vivo, C57Bl/6j mice; details: for bioavailability: relative to the area under the curve for IV administration
# Experimental: as §1, with “From each animal blood will be collected 5 times: baseline (before the single dose); 5 minute; 30 minute; 1 hour; 3 hour after the single dose of the compound.” left out, “method.)” for “method.) FIG. 6. 3 day brain clearance study. A C57Bl/6j mouse was treated with 10 mg/kg JJS-1-166. After 3 days, the level of JJS-1-166 in the brain was assessed to ensure that all or a majority of the drug had been cleared.”
# fatty acid synthase = fatty acid synthase (Homo sapiens, UniProt P49327); test: fatty acid synthase inhibition; type: biochemical; details: read-out: Potency, fatty acid synthase inhibitor
# fatty acid synthase, sequence (P49327 whole entry): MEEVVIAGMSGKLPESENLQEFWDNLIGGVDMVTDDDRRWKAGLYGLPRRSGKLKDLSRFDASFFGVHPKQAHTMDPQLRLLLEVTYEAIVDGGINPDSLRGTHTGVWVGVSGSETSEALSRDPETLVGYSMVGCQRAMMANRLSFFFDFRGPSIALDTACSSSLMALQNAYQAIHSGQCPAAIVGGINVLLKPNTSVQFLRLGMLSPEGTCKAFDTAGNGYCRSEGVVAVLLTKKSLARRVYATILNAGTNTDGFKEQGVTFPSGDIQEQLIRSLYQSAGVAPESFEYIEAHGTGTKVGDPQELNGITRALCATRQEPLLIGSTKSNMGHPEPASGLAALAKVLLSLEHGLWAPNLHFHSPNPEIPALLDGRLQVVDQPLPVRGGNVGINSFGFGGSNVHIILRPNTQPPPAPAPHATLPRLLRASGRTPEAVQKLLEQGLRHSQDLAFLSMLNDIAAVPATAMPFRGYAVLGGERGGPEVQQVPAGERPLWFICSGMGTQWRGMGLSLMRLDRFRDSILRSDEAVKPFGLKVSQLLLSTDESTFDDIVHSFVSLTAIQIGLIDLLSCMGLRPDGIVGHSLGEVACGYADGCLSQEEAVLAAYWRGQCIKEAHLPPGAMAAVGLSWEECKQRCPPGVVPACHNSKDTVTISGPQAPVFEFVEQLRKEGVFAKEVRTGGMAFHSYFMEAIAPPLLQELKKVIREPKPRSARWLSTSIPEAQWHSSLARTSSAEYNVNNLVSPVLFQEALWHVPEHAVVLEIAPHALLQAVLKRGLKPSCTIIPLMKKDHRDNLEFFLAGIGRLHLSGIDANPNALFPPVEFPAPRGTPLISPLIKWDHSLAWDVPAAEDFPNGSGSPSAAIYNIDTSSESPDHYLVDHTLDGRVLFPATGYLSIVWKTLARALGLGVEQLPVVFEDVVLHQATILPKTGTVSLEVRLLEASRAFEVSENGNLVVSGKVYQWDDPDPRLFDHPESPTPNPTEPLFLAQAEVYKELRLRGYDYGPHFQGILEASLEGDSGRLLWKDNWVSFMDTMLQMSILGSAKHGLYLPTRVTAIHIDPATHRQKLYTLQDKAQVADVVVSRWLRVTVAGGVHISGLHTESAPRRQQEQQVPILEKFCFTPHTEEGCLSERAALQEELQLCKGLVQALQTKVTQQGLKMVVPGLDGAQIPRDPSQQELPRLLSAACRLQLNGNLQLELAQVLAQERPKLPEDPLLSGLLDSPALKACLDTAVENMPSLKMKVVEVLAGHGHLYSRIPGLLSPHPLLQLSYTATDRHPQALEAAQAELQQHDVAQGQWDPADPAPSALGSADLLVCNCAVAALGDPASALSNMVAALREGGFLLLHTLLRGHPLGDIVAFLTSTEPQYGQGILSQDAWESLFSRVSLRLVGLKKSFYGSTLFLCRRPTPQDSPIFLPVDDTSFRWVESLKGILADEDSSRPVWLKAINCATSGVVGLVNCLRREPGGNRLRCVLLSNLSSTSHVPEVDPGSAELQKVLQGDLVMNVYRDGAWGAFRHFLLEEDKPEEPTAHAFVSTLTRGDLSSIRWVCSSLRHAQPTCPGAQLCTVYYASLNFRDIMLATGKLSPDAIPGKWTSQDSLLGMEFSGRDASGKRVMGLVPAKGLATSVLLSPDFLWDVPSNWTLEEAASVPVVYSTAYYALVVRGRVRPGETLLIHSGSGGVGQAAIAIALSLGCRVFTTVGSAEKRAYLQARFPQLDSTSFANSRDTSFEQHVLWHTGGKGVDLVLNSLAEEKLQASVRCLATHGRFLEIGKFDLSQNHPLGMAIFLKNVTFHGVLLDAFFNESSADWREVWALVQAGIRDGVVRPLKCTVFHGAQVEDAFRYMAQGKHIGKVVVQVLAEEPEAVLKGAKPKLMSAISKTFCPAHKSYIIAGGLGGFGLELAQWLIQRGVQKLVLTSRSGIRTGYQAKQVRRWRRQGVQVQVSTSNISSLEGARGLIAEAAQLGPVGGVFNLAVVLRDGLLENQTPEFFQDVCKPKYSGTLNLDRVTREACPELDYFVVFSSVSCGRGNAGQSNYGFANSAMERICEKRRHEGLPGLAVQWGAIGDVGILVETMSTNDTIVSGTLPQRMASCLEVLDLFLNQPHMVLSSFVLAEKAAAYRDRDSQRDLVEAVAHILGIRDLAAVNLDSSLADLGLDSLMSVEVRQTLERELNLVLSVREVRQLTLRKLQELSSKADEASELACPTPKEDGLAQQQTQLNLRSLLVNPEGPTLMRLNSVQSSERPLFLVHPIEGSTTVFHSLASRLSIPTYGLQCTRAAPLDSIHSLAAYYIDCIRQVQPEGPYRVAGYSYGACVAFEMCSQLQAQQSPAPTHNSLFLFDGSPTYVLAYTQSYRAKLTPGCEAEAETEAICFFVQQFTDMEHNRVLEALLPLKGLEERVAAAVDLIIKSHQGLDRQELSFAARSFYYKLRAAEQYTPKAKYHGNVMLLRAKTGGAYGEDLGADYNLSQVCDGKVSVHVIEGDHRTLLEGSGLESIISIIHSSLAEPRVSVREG
# [9] = molecular target: serotonin 5A receptor (5HTR5A) (Homo sapiens, UniProt P47898); test: serotonin 5A receptor (5HTR5A) inverse agonist activity; type: cell-based; details: 9.3 μM
# serotonin 5A receptor (5HTR5A), sequence (P47898 whole entry): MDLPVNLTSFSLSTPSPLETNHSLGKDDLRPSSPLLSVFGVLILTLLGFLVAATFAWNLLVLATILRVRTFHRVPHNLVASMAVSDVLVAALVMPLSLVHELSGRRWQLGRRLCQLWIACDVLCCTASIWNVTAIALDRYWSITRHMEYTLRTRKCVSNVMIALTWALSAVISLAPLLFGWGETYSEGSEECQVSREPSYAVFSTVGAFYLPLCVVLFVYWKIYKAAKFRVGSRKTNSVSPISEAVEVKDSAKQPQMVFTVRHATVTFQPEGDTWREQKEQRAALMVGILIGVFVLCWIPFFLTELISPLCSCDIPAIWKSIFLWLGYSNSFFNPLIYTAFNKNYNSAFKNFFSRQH
# [10] = time point 3 h, individual animals
# [11] = time point 72 h, individual animals
smiles,measurement,setting,value
O=C(c1cc(Cl)cc(Cl)c1)N1CC[C@@H]2C[C@H]1c1cc(N3CCCCC3)ccc12,"Potency, human M1 muscarinic receptor antagonist",[1],69% (3 μM)
"COc1ccc(S(=O)(=O)N2CC[C@@H]3C[C@H]2c2cc(N4CCOCC4)ccc23)cc1 (stereo in doubt) [30{2,2,30}, 4-(2-((4-Methoxyphenyl)sulfonyl)-2,3,4,5-tetrahydro-1H-1,5-methanobenzo[c]azepin-8-yl)morpholine]",melting point,,176 to 177 °C
O=C(OCc1ccccc1)N1CC[C@@H]2C[C@H]1c1c(Cl)cccc12,"Potency, Y. pestis topoisomerase I inhibitor",[2],61% (10 μM)
"FC(F)(F)c1ccc(-c2ccc3c(c2)[C@@H]2C[C@H]3CCN2Cc2ccccc2)cc1 (stereo in doubt) [21{2,7}, 2-Benzyl-8-(4-(trifluoromethyl)phenyl)-2,3,4,5-tetrahydro-1H-1,5-methanobenzo[c]azepine]",melting point,,101 to 103 °C
N#Cc1ccc(C(=O)N2CC[C@@H]3C[C@H]2c2cc(-c4ccccc4)ccc23)cc1,inhibition at 20 µM,[3],69%
CCCCNc1ccc2c(c1)[C@@H]1C[C@H]2CCN1C(=O)OCc1ccccc1,EC40,[4],3.3 µM
COc1ccc(-c2ccc3c(c2)[C@@H]2C[C@H]3CCN2)cc1,inhibition at 10 µM,[5],91%
CN1CCN(c2ccc3c(c2)[C@H]2CC3CCN2C(=O)OCc2ccccc2)CC1 [JJS-1-166],concentration at 24 h,"[6]; C57Bl/6j, mouse, brain, 10 mg/kg, read-out: Drug concentration in the Brain",1.76 ng/g
same,Drug concentration in the Brain,[6],1.63 ng/g and 1.28 ng/g
same,brain exposure,"[7]; SC administration, 3 hours",high level of brain exposure
same,concentration at 3 h,"[7]; time point 3 h, individual animals, read-out: Drug concentration in the Brain",1570 ng/g
same,concentration at 3 h,"[7]; sc, 3 hours after subcutaneous (SC) administration, read-out: brain concentration",15 ng/mL
same,brain exposure,[7]; overall statement,adequate brain exposure
same,Drug concentration in the Brain,[7]; [10],1100.0 ng/g and 1840.0 ng/g
same,Drug concentration in the Brain,[7]; [11],No Peak
same,concentration at 24 h,"[8]; C57Bl/6j, mouse, plasma, time point 24 h, individual animals, read-out: Drug concentration in the Plasma",0.14 ng/g
same,plasma concentration (Cmax),"[8]; SC administration, 10 mg/kg, at 1 hour, mouse",greater than 300 ng/dL
same,time for which detectable plasma levels were maintained,"[8]; after SC, OP, and IV administration, mouse",greater than 150 minutes
same,plasma concentration (Cmax),"[8]; intravenous (IV) administration, 10 mg/kg, at 5 minutes, mouse",greater than 1500 ng/dL
same,concentration at 3 h,"[8]; male, C57Bl/6j, mouse, plasma, 10 mg/kg, time point 3 h, individual animals, read-out: Drug concentration in the Plasma",156 ng/g
same,bioavailability,"[8]; male, C57Bl/6j, plasma, oral, 10 mg/kg, mouse, read-out: OP bioavailability",7%
same,bioavailability,"[8]; male, C57Bl/6j, plasma, subcutaneous, 10 mg/kg, mouse, read-out: SC bioavailability",45%
same,pharmacokinetic properties,"[8]; mouse, overall statement",acceptable
same,plasma concentration (Cmax),"[8]; oral (PO) administration, 10 mg/kg, at 30 min, mouse",greater than 60 ng/dL
same,Drug concentration in the Plasma,[8]; [10],136.0 ng/g and 209.0 ng/g
same,Drug concentration in the Plasma,"[8]; time point 24 h, individual animals",0.163 ng/g and 0.0913 ng/g
same,Drug concentration in the Plasma,[8]; [11],No Peak
COc1ccc(NC(=S)N2CCN(c3ccc4c(c3)[C@@H]3CCN(C(=O)OCc5ccccc5)[C@H]4C3)CC2)c(OC)c1,inhibition at 15 µM,fatty acid synthase,57%
Clc1cccc(CN2CC[C@@H]3C[C@H]2c2cc(N4CCCCC4)ccc23)c1,"Potency, serotonin 5A receptor (5HTR5A) inverse agonist",[9],27% (9.3 μM)
